Measurements published in publication PMC5503199 (Molecular microbiology, 2009).
Values joined by “and” are separate entries in the source; they are usually repeats but may differ in a detail not shown here. Equal entries are not always repeated. Where two headings read alike, the source gives them in different places.

How the values were obtained:
ChoXWV = biological target: T1, ChoXWV (Sinorhizobium meliloti, UniProt Q92N37); assay: Competitive uptake, MKH13 expressing choXWV; format: cell-based; conditions: pNchoXWV, SBP ChoX, [^14C]choline 10 μM, competitor 1 mM
T1 sequence (Q92N37 28-318): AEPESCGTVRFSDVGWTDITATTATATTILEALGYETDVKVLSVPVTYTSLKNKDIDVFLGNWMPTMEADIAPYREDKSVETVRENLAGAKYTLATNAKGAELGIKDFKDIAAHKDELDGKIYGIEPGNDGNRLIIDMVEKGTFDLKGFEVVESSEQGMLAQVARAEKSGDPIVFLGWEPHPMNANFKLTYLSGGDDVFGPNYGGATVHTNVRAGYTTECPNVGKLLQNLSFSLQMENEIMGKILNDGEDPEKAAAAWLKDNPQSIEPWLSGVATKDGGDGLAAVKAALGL
T1 sequence (Q92N36 1-281 partner): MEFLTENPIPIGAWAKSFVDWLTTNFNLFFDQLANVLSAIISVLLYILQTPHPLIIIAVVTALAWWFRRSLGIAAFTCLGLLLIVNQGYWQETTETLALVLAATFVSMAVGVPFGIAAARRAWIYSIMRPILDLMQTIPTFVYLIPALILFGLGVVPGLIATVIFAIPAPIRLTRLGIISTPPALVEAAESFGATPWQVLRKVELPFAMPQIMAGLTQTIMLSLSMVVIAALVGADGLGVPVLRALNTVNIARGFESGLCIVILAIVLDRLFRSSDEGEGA
T1 sequence (Q92N35 1-349 partner): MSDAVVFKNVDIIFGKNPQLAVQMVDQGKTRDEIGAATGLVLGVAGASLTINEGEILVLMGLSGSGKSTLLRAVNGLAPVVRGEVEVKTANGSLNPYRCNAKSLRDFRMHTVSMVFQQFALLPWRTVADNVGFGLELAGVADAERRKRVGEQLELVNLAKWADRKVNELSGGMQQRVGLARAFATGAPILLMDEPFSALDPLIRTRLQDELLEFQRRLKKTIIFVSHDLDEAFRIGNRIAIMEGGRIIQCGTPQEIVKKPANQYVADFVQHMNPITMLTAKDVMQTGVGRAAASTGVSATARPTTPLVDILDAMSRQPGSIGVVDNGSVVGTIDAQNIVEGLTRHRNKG

CbcX and CaiX with CbcWV = format: cell-based, Pseudomonas aeruginosa; conditions: MKH13, pNcbcXWV, pT-PA5388, SBPs CbcX/CaiX, competitor 1 mM
BetX with CbcWV = biological target: T2, BetX with CbcWV (Pseudomonas aeruginosa, UniProt Q9HZ04); assay: Competitive uptake, MKH13 expressing cbcWV and betX; format: cell-based; conditions: pNcbcWV, pT-PA3236, SBP BetX, [^14C]betaine 10 μM, competitor 1 mM
T2 sequence (Q9HZ04 26-285): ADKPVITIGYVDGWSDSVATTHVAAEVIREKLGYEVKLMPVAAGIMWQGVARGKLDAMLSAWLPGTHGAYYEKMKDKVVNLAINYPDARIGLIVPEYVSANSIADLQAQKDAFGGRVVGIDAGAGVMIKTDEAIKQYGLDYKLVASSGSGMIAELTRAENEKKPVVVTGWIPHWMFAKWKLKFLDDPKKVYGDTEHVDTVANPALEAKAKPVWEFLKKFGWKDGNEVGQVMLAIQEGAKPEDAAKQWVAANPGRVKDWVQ
T2 sequence (Q9HTI7 1-279 partner): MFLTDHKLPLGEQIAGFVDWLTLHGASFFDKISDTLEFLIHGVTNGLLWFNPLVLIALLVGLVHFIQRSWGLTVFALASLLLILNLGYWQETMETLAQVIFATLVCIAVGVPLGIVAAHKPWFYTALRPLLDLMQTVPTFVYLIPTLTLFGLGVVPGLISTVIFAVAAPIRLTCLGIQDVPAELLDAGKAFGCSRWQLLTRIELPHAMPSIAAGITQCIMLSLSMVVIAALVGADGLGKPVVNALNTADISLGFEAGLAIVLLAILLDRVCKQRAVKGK
T2 sequence (Q9HTI8 1-392 partner): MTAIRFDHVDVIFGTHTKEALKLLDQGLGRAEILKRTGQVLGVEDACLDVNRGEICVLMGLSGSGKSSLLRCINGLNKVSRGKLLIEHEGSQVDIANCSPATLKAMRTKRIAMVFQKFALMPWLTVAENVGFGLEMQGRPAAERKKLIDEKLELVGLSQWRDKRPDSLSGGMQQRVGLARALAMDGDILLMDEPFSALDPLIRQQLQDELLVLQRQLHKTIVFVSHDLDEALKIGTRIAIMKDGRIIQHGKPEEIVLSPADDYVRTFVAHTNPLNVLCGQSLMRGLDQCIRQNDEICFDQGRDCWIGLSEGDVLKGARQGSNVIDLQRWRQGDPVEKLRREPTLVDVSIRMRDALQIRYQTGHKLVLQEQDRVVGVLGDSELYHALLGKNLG

CbcX with CbcWV = CbcX with CbcWV (Pseudomonas aeruginosa, UniProt Q9HTI6); assay: Competitive uptake, MKH13 expressing cbcXWV; format: cell-based
CaiX with CbcWV = format: cell-based, Pseudomonas aeruginosa; conditions: MKH13; pNcbcWV, pT-PA5388; SBP CaiX; [^14C]carnitine 10 μM; competitor 1 mM
[1] = substrate: C[N+](C)(C)CC(=O)O; assay: cells, lysate or membranes; conditions: mean (SE), n = 4
[2] = substrate: C[N+](C)(C)CCO; assay: cells, lysate or membranes; conditions: mean (SE), n = 4
[3] = substrate: C[N+](C)(C)C[C@H](O)CC(=O)[O-]; assay: cells, lysate or membranes; conditions: other: PA5378::tn, pNcbcWV; SBP CaiXPAO1; mean (SE), n = 4
[4] = other: MKH13, pNcbcXWV, SBP CbcX, Michaelis–Menten fit

CC(=O)OCC[N+](C)(C)C [AC, acetylcholine]
% inhibition of uptake of substrate by unlabelled competitor (ChoXWV): 88%

CN(C)CC(=O)O [DM, dimethylglycine]
% inhibition of uptake of substrate by unlabelled competitor (CbcX and CaiX with CbcWV; [^14C]betaine 10 μM): −4%
% inhibition of uptake of substrate by unlabelled competitor (CbcX and CaiX with CbcWV; [^14C]choline 10 μM): −8%
% inhibition of uptake of substrate by unlabelled competitor (BetX with CbcWV): 56%
% inhibition of uptake of substrate by unlabelled competitor (CbcX with CbcWV): 4%
% inhibition of uptake of substrate by unlabelled competitor (CbcX with CbcWV; MKH13, pNcbcXWV, SBP CbcX, [^14C]betaine 10 μM, competitor 1 mM): −5%
% inhibition of uptake of substrate by unlabelled competitor (CaiX with CbcWV): 2%

CNCC(=O)O [MM, monomethylglycine]
% inhibition of uptake of substrate by unlabelled competitor (CbcX and CaiX with CbcWV; [^14C]betaine 10 μM): 3%
% inhibition of uptake of substrate by unlabelled competitor (CbcX and CaiX with CbcWV; [^14C]choline 10 μM): 2%
% inhibition of uptake of substrate by unlabelled competitor (BetX with CbcWV): −13%
% inhibition of uptake of substrate by unlabelled competitor (CbcX with CbcWV): −3% and 2%
% inhibition of uptake of substrate by unlabelled competitor (ChoXWV): −4%
% inhibition of uptake of substrate by unlabelled competitor (CaiX with CbcWV): 0%

C[N+](C)(C)CCOP(=O)(O)O [PC, phosphorylcholine]
% inhibition of uptake of substrate by unlabelled competitor (CbcX with CbcWV; MKH13, pNcbcXWV, SBP CbcX, [^14C]choline 10 μM, competitor 1 mM): 1%
% inhibition of uptake of substrate by unlabelled competitor (ChoXWV): 5%

B1: CbcX with CbcWV (Pseudomonas aeruginosa PAO1) (protein)
chain: AEPESCASVRFADVGWTDITVTTAVTRQVLESLGYKTKVNLLSVPVTYRSLANNDLDVFLGNWMPTMTNDIKQYAEKGTVETLRANLEGAKYTLAVPQYVYDGGLRSFADIAKFSDKLGNKIYGIEPGNDGNRVAQSMIDKNAFELGKFKLVESSEAGMLSQVQRAIRRNQWVVFLGWEPHPMNTRFQMKYLEGGDDFFGPNYGGATIYTNVRKGYAQECANVGQLLKNLSFTLEMENKLMDAVLNENKKPEEAAKAWLKDHPEQLDAWLAGVTTRDGQPAAAAAKLAFAK
Km [1, 4]: 24.2 (2.4) μM
Vmax [1, 4]: 11.6 (0.6) nmol min^-1
Km [2, 4]: 2.6 (0.66) μM

B2: ChoXWV (Sinorhizobium meliloti 1021) (protein)
chain: T1 sequence (Q92N37 28-318)
Km ([2]; other: MKH13, pNchoXWV, SBP ChoX): 1.8 (0.36) μM

B3: CbcWV-CaiX (Pseudomonas aeruginosa PAO1) (protein)
chain: AEPEQCRTVRLGTVNWTDVVASSAVAEALLDGLGYQVKQTSASQQIVLAGLADKQLDLFLGYWQPTMQPVARPYLDKGRIEVIEPPTLADAQSTYAVPSYVAEGGLKTFADIARFKDKLGGRIYAIEPGSGSNRITRKMIDDNRFGLKGFQLVESSEAGMLTAVKRAIKRKQWVVFFGWKPHPMNLQIDMTYLTGSEDVFGPDEGAATVSTMTAAGYQAQCGNVARLLHNLRFSSAQVSQVMAPILDRTQPLDAARQWLKANPEPLKAWLDGVSTFDGKDGLAALQASLK
Km [3]: 24 μM and 24.2 (8.3) μM

B4: BetX with CbcWV (Pseudomonas aeruginosa PAO1) (protein)
chain: T2 sequence (Q9HZ04 26-285)
Km ([1]; other: MKH13, pNcbcWV + pTPA3236, SBP BetX): 0.6 (0.16) μM
